Source: BindingDB's records for patent US20240383893 (Haihe Biopharma, 2024)

Target: T1, Ectonucleotide pyrophosphatase/phosphodiesterase family member 1 (Homo sapiens, UniProt P22413)
T1 sequence (P22413 whole entry): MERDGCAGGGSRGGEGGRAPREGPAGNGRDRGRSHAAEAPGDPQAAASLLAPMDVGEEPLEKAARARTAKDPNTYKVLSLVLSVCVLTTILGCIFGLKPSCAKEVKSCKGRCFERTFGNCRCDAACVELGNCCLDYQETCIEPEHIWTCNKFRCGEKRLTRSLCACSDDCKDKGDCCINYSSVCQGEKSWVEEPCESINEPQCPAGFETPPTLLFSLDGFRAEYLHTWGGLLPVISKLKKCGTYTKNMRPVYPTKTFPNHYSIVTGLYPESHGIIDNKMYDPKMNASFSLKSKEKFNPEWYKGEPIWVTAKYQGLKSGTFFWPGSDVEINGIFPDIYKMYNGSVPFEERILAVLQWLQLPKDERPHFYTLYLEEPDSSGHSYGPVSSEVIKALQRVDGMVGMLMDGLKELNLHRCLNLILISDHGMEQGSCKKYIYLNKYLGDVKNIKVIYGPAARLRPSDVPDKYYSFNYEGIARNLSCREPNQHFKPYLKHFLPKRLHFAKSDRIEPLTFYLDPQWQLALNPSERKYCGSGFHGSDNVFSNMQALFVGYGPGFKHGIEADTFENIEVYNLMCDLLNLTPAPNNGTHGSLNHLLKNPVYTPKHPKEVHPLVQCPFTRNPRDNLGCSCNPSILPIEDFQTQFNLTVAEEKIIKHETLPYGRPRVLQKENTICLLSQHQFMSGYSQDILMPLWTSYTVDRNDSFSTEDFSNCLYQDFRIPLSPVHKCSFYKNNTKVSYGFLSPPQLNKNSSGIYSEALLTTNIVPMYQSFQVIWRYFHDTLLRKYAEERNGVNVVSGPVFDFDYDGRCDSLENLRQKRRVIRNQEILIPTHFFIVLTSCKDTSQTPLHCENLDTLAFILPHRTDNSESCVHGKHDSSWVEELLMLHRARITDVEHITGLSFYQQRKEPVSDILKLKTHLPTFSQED
Test: ENPP1 Inhibitory Activity Assay

Compound	IC50 [nM]
COc1ccc2c(Oc3ccc(C(C(=O)NO)C(C)C)cc3)ccnc2n1 (configuration not stated) [US20240383893, Compound 130]	6.9
COc1ccc2c(Oc3ccc(C(C)(C(=O)NO)C(C)C)cc3)ccnc2n1 (configuration not stated) [US20240383893, Compound 165]	23
